Laboratory results published in patent US7892764B2, “System for seizure suppression” (priority 2006, dated 2011).

Columns and labels:
Format in all cases: cell-based
ASIC current [1] = molecular target: T1, ASIC current (Mus musculus, UniProt Q6NXK8); test: Acid-induced (pH 6.0) ASIC current in mouse cortical neurons, patch-clamp recording; conditions: read-out: IC50 (concentration at 50% inhibition) of ASIC current amplitude; pH drop 7.4 to 6.0, holding potential −60 mV
T1 sequence (Q6NXK8 1-526): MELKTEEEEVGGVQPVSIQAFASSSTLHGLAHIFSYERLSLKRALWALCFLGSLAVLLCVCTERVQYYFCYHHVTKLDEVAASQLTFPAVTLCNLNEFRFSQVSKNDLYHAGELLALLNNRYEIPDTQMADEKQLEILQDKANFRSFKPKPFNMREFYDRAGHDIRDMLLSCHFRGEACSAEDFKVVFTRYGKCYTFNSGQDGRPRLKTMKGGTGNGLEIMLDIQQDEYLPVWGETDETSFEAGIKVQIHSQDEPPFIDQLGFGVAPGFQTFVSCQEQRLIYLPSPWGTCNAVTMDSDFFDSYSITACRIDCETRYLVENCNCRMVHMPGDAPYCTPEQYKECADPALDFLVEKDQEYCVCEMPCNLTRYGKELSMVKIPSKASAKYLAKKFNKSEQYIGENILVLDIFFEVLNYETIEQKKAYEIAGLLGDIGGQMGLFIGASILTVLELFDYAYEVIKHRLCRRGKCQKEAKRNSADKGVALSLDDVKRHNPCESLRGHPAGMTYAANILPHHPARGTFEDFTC
Text: Mouse cortical neurons in culture were monitored electrophysiologically by patch-clamp recording of current at a holding potential of −60 mV. An ASIC current was induced at this holding potential by dropping the extracellular pH from physiological pH (pH 7.4) to pH 6.0, in the presence of different concentrations of benzamil (FIG. 11) or EIPA (FIG. 12). The current traces obtained are presented in the upper part of FIGS. 11 and 12. […] Therefore, amiloride derivatives inhibit ASIC channel activity and may be used for seizure suppression in subjects prone to seizures and/or having a seizure.

ASICs = molecular target: T2, ASICs (Mus musculus, UniProt Q6NXK8); test: Acid (pH 7.0/7.1)-induced membrane depolarization and neuronal firing, current-clamp recording; conditions: pH 7.0; amiloride 100 μM or synthetic PcTX1 20 nM
T2 construct: Primary neuronal cultures were prepared from embryonic Swiss mice at 15 to 16 days of gestation; endogenous in cells
T2 sequence (Q6NXK8 1-526): T1 sequence (Q6NXK8 1-526)
Text: Unlike ischemia, only moderate pH changes (e.g., ˜0.3 pH unit) are reported in brain parenchyma during seizures (Chesler et al., 1988: Chesler et al., 1992), although pH in the synaptic cleft may be much lower (Chesler et al., 1992; Wemmie et al., 2006). […] One possibility is that voltage-clamp recording has relatively low sensitivity to resolve small current in whole-cell configuration. To provide more evidence that the decreases of pHo to the level seen in epilepsy can indeed activate the ASICs and cause neuronal excitation, we have also used current-clamp recording to study changes of membrane depolarization and neuronal firing by small changes of pHo. Due to the large input resistance of most CNS neurons (e.g., ˜500 MΩ), even a small membrane current (e.g., 10-20 pA, which is difficult to resolve in voltage-clamp recording in general) can induce significant membrane depolarization in current-clamp conditions. Mouse cortical neurons were used for current-clamp recordings 14 days after the culture.
Cortical neuronal culture. Primary neuronal cultures were prepared from embryonic Swiss mice at 15 to 16 days of gestation according to our previously described techniques (Xiong et al., 2004). In brief, cerebral cortices from 10 to 12 embryos were dissected and incubated with 0.05% trypsin-EDTA for 10 min, dissociated by trituration with a fire-polished glass pipette, and plated on poly-L-ornithine-coated culture dishes at a density of 0.5×10^6 cells per dish. Neurons were cultured with Neurobasal medium supplemented with B27 (Invitrogen). The cultures were maintained at 37° C. in a humidified 5% CO2 atmosphere incubator and were used for experiments after 12-14 days.
Patch clamp techniques. Whole-cell voltage-clamp and current-clamp recordings were performed as described in our previous studies (Xiong et al., 2004). […] Whole-cell currents were recorded using Axopatch 200B amplifiers with pCLAMP software (Axon Instruments, CA, USA). […]

mouse hippocampal slices = test: Low Mg2+-induced epileptiform bursting activity (evoked and spontaneous) in hippocampal slices; conditions: 200 ng/mL PcTX1 venom or 20 nM synthetic PcTX1, absence of Mg2+
Experimental: Limbic seizures (Avoli et al., 2002) are modeled by removing Mg^2+ from artificial cerebral spinal fluid (aCSF) in slices of hippocampal-entorhinal cortex, which triggers interictal-like bursting activity, or spontaneous ictal-like events (Wong et al., 2001; Anderson et al., 1986). In the presence of normal Mg^2+ (1.5 mM), stimulation of Schaffer collaterals induces single population spike or EPSP in the CA1 region of the hippocampus. […] Perfusion with Mg^2+-free aCSF for about 30 min evoked synchronous burst firing with the same stimulation intensity. In about, 30% of the slices, spontaneous clustered bursts developed in the absence of electrical stimulation. Bath perfusion of amiloride or PcTX1 for 10 min reduced the amplitude and frequency of evoked bursting activity (FIGS. 5A and 5B). Amiloride (100 μM) reduced the amplitude of the first and the second population spikes (from 1.2±0.2 mV to 0.5±0.2 mV and 0.6±0.03 mV to 0.2±0.05 mV, respectively (n=9: p<0.01, FIGS. 5A and 5B), and the number of population spikes (from 4.7±0.6 to 3.3±0.8, n=9, p<0.05)). Similarly, PcTX1 (200 ng/mL) attenuated the amplitude of the population spike (from 2.1±0.3 to 1.6±0.2 mV, n=9, p<0.05) and the number of spikes (from 4.2±0.6 to 3.0±0.6, p<0.05).
Preparation of hippocampal slices and brain slice recording. Hippocampal slices were obtained from 8- to 10-week-old mice. The protocol for brain-slice recording was approved by the Institutional Animal Care and Use Committee of Legacy Research. Animals were deeply anesthetized with isoflurane and decapitated. Brains were quickly removed and placed in ice-cold solution that contained: 125 mM sucrose, 2.5 mM KCl, 26 mM NaHCO3, 1.25 mM NaHPO4, 6.0 mM […], 0.5 mM CaCl2, and 10 mM glucose, and was saturated with 95% O2 and 5% CO2 (pH 7.4). Hippocamnpal slices were cut in 400 μm thickness in transverse plane with a vibratome (Leica VT 1000S) and placed in a slice holding chamber (BSC-PC Prechamber, Warner Instrument) and incubated in normal artificial cerebral spinal fluid (aCSF) that contained: 125 mM NaCl, 2.5 mM KCl, 26 mM NaHCO3, 1.25 mM […], 1.0 mM MgSO4, 2.0 mM CaCl2, and 10 mM glucose, and was saturated with 95% O2 and 5% CO2 (pH 7.4).
Following ˜60 min of incubation at room temperature, individual slices were transferred to a submerged slice chamber with a volume of 0.5 mL (Warner Instruments, Hamden, Conn.) and perfused with oxygenated aCSF (35° C.) at a rate of 3-4 mL/min. Recording electrodes were pulled from borosilicate glass and filled with aCSF. The population spike and the field excitatory postsynaptic potentials (fEPSP) were recorded in stratum pyramidale and striatum radiatum of hippocampal CA1 region, by stimulating Schaffer Collaterals.
For low Mg^2+ induced epileptic burst activity, Mg^2+-free aCSF was perfused to the slices for ˜30 min. For stimulus-train induced bursting discharges (STIB), each stimulation train consisted of 120 pulses at 60 Hz and each pulse was 100 μsec in duration (Stasheff et al., 1985). A 10-minute interval of non-stimulation was provided between successive trains of high frequency stimulation. Stimulation electrodes were located in striatum radiatum between CA1 and CA3 region. The population spikes were recorded from striatum pyramidale of the CA3 region.
Pharmacological and electrical bursting models. To induce epileptic burst discharges, Mg^2+-free aCSF was applied. Mg^2+-free aCSF was obtained by simply omitting MgSO4 from aCSF.

ASIC current [2] = test: Effect of antiepileptic agents on ASIC current activated by pH drop from 7.4 to 6.0 in isolated neurons
Text: Activation of ASICs may be involved in increased neuronal excitability and thus seizure generation. Inhibition of ASICs, on the other hand, is expected to be antiepileptic. To test this hypothesis further, we performed a study to examine the effect of currently available antiepileptic agents—particularly those agents for which the mechanism of action is not fully understood—on ASIC currents. We suspected that some of the current antiepileptic agents may, in fact, exert their antiepileptic effect partially through their inhibition of an ASIC current. Three commonly used antiepileptic agents were tested on an ASIC current activated by a pH drop from 7.4 to 6.0. […] Perfusion of lamotrigine (1 mM), however, inhibited the current by 43±13% (n=3, p<0.05, FIG. 15B), whereas perfusion of 1 mM felbamate reduced the amplitude of the ASIC current by nearly 60% (n=3. FIG. 15C).

## CCN(c1nc(N)c(C(=O)N=C(N)N)nc1Cl)C(C)C [EIPA, 5-(N-ethyl-N-isopropyl)-amiloride]
ASIC current [1]
  IC50: ~20 µM

## synthetic PcTX1: chemically synthesized PcTX1 peptide, used at 20 nM
ASICs
  effect on acid-induced neuronal excitation (membrane depolarization, firing rate): largely and significantly reduced
Mouse hippocampal slices
  effect on frequency of spontaneous clustered bursting activity: reduced the frequency

## NC(=O)OCC(COC(N)=O)c1ccccc1 [felbamate]
ASIC current [2]; 1 mM, pH drop from 7.4 to 6.0
  inhibition of ASIC current amplitude: ~60%

## Nc1nnc(-c2cccc(Cl)c2Cl)c(N)n1 [lamotrigine]
ASIC current [2]
  effect on desensitization of the ASIC current: enhances the desensitization
ASIC current [2]; 1 mM, pH drop from 7.4 to 6.0
  inhibition of ASIC current amplitude: 43±13%

## CCC1(C)CC(=O)NC1=O (stereo not shown) [ethosuximide]
ASIC current [2]; 1 mM, bath application 5 min, pH drop from 7.4 to 6.0
  effect on amplitude of the ASIC current: did not affect
